Measured values reported in patent US9388176B2, “Method of treating conditiions with kinase inhibitors” (Allergan, Inc., priority 2012, dated 2016).

biological target: VEGFR2 (KDR) kinase, purified cytoplasmic domain KDR protein (Homo sapiens (Human), UniProt P35968); experiment: VEGFR2 Kinase Assay; format: biochemical; conditions: 2.7 μM ATP, poly-Glu-Tyr (4:1) substrate, 15 minute incubation at 30° C., ELISA read at 492 nm
Experimental: Biochemical KDR kinase assays were performed in 96 well microliter plates that were coated overnight with 75 μg/well of poly-Glu-Tyr (4:1) in 10 mM Phosphate Buffered Saline (PBS), pH 7.4. The coated plates were washed with 2 mls per well PBS+0.05% Tween-20 (PBS-T), blocked by incubation with PBS containing 1% BSA, then washed with 2 mls per well PBS-T prior to starting the reaction. […] Reactions were initiated by the addition 20 ul per well of kinase buffer containing 200-300 ng purified cytoplasmic domain KDR protein (BPS Bioscience, San Diego, Calif.). Following a 15 minute incubation at 30° C., the reactions were washed 2 mls per well PBS-T. 100 μl of a monoclonal anti-phosphotyrosine antibody-peroxidase conjugate diluted 1:10,000 in PBS-T was added to the wells for 30 minutes. Following a 2 mls per well wash with PBS-Tween-20, 100 μl of O-Phenylenediamine Dihydrochloride in phosphate-citrate buffer, containing urea hydrogen peroxide, was added to the wells for 7-10 minutes as a colorimetric substrate for the peroxidase. […] IC50 values for compound inhibition were calculated directly from graphs of optical density (arbitrary units) versus compound concentration following subtraction of blank values.

Sequence of VEGFR2 (KDR) kinase, purified cytoplasmic domain KDR protein (P35968 786-1356): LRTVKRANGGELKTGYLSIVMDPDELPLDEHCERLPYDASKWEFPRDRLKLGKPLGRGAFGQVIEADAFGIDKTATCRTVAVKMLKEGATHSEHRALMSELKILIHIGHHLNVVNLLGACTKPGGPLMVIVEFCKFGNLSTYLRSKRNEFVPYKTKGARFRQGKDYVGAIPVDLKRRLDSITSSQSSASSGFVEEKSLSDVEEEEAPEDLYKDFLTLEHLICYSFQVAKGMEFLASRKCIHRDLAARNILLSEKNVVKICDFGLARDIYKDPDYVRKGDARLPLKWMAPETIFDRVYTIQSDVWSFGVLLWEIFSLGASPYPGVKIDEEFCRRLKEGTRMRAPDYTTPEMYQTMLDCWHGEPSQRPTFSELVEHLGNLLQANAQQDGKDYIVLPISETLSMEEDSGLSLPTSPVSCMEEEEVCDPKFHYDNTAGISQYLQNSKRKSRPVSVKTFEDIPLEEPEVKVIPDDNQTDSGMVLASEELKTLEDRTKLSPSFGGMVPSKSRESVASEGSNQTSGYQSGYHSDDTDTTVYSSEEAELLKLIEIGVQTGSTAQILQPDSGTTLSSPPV

Question: Which IC50 does the source give for “4-(2-Methylsulfanyl-5,7-dihydro-pyrrolo[3,4-d]pyrimidin-6-yl)-pyridine-2-carboxylic acid (3-trifluoromethyl-phenyl)-amide [Example 126]” here?
Answer: The IC50 was greater than 10000 nM.

Question: With CSc1ncc2c(n1)CCN(c1cc(C)cc(C(=O)Nc3cccc(C(F)(F)F)c3)c1)C2 [Example 140, 3-methyl-5-[2-(methylthio)-7,8-dihydropyrido[4,3-d]pyrimidin-6(5H)-yl]-N-[3-(trifluoromethyl)phenyl]benzamide] as the molecule, how does the IC50 read?
Answer: Its IC50 is greater than 1000 nM.

Question: How did the IC50 turn out when CSc1ncc2c(n1)CCN(c1cc(C)cc(C(=O)Nc3cccc(C(C)C)c3)c1)C2 [Example 142, N-(3-isopropylphenyl)-3-methyl-5-[2-(methylthio)-7,8-dihydropyrido[4,3-d]pyrimidin-6(5H)-yl]benzamide] was run?
Answer: Its IC50 is greater than 1000 nM.

Question: Which IC50 does the source give for Cc1ccc(NC(=O)Nc2ccc(N3CCc4ccncc4C3)cc2)cc1 [Example 165, 1-[4-(3,4-dihydro-2,7-naphthyridin-2(1H)-yl)phenyl]-3-(4-methylphenyl)urea] here?
Answer: Its IC50 is greater than 1000 nM.

biological target: PDGFRβ kinase, purified cytoplasmic domain PDGFR-β protein (Homo sapiens (Human), UniProt P09619); experiment: PDGFRβ Kinase Assay; format: biochemical; conditions: 36 μM ATP, poly-Glu-Tyr (4:1) substrate, 60 minute incubation at 30° C., ELISA read at 492 nm
Sequence (P09619 554-1106): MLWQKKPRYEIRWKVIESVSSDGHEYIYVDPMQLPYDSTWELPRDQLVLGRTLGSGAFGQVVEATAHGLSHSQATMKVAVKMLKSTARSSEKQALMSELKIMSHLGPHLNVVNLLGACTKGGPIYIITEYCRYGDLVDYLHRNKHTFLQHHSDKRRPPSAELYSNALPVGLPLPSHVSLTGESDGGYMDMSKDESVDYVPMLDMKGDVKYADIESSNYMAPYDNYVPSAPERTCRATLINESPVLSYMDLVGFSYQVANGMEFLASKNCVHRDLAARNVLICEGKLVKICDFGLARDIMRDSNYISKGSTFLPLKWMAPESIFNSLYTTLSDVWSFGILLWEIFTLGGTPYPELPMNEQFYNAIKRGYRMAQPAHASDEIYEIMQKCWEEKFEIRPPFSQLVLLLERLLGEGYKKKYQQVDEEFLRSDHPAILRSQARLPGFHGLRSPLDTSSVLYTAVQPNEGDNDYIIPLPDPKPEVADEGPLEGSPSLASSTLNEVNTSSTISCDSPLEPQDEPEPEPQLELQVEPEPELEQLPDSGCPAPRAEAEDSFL
Experimental: Biochemical PDGFRβ kinase assays were performed in 96 well microliter plates that were coated overnight with 75 μg of poly-Glu-Tyr (4:1) in 10 mM Phosphate Buffered Saline (PBS), pH 7.4. The coated plates were washed with 2 mls per well PBS+0.05% Tween-20 (PBS-T), blocked by incubation with PBS containing 1% BSA, then washed with 2 mls per well PBS-T prior to starting the reaction. Reactions were carried out in 100 μL reaction volumes containing 36 μM ATP in kinase buffer (50 mM Hepes buffer pH 7.4, 20 mM MgCl2, 0.1 mM MnCl2 and 0.2 mM Na3VO4). Test compounds were reconstituted in 100% DMSO and added to the reaction to give a final DMSO concentration of 5%. Reactions were initiated by the addition 20 ul per well of kinase buffer containing 200-300 ng purified cytoplasmic domain PDGFR-β protein (Millipore). Following a 60 minute incubation at 30° C., the reactions were washed 2 mls per well PBS-T. 100 μl of a monoclonal anti-phosphotyrosine antibody-peroxidase conjugate diluted 1:10,000 in PBS-T was added to the wells for 30 minutes. Following a 2 mls per well wash with PBS-Tween-20, 100 μl of 0-Phenylenediamine Dihydrochloride in phosphate-citrate buffer, containing urea hydrogen peroxide, was added to the wells for 7-10 minutes as a colorimetric substrate for the peroxidase. The reaction was terminated by the addition of 100 μl of 2.5N H2SO4 to each well and read using a microplate ELISA reader set at 492 nm. IC50 values for compound inhibition were calculated directly from graphs of optical density (arbitrary units) versus compound concentration following subtraction of blank values. […]

Question: With CC(C)c1cccc(NC(=O)c2cccc(N3CCc4nc(N)ncc4C3)c2)c1 [Example 2, 3-(2-amino-7,8-dihydropyrido[4,3-d]pyrimidin-6(5H)-yl)-N-(3-isopropylphenyl)benzamide] as the molecule, how does the IC50 read?
Answer: Its IC50 is 21 nM.

Question: For Nc1ncc2c(n1)CCN(c1cccc(C(=O)Nc3cccc(C(F)(F)F)c3)c1)C2 [Example 5, 3-(2-amino-7,8-dihydropyrido[4,3-d]pyrimidin-6(5H)-yl)-N-(3-(trifluoromethyl)phenyl)benzamide], which IC50 is on record?
Answer: The IC50 was 26 nM.

Question: Which IC50 does the source give for COc1cccc(NC(=O)c2cccc(N3CCc4nc(N)ncc4C3)c2)c1 [Example 7, 3-(2-amino-7,8-dihydropyrido[4,3-d]pyrimidin-6(5H)-yl)-N-(3-methoxyphenyl)benzamide] here?
Answer: Its IC50 is 1240 nM.

Question: With CCc1ccc(NC(=O)c2cccc(N3CCc4nc(N)ncc4C3)c2)cc1 [Example 8, 3-(2-amino-7,8-dihydropyrido[4,3-d]pyrimidin-6(5H)-yl)-N-(4-ethylphenyl)benzamide] as the molecule, how does the IC50 read?
Answer: Its IC50 is 134 nM.

Question: For CCc1cccc(NC(=O)c2cccc(N3CCc4nc(N)ncc4C3)c2)c1 [Example 9, 3-(2-amino-7,8-dihydropyrido[4,3-d]pyrimidin-6(5H)-yl)-N-(3-ethylphenyl)benzamide], which IC50 is on record?
Answer: Its IC50 is 52 nM.

Question: How did the IC50 turn out when CCCc1ccc(NC(=O)c2cccc(N3CCc4nc(N)ncc4C3)c2)cc1 [Example 10, 3-(2-amino-7,8-dihydropyrido[4,3-d]pyrimidin-6(5H)-yl)-N-(4-propylphenyl)benzamide] was run?
Answer: Its IC50 is 32 nM.

Question: CN1CCC(Oc2ccc(NC(=O)c3cccc(N4CCc5nc(N)ncc5C4)c3)cc2)CC1 [Example 11, 3-(2-amino-7,8-dihydropyrido[4,3-d]pyrimidin-6(5H)-yl)-N-(4-((1-methylpiperidin-4-yl)oxy)phenyl)benzamide] was tested. Which IC50 did it give?
Answer: The IC50 was greater than 1000 nM.

Question: How did the IC50 turn out when CC(C)c1ccc(NC(=O)c2cccc(N3CCc4nc(N)ncc4C3)c2)cc1 [Example 12, 3-(2-amino-7,8-dihydropyrido[4,3-d]pyrimidin-6(5H)-yl)-N-(4-isopropylphenyl)benzamide] was run?
Answer: The IC50 was 24 nM.

Question: How did the IC50 turn out when CCCCNC(=O)c1cccc(N2CCc3nc(N)ncc3C2)c1 [Example 16, 3-(2-amino-7,8-dihydropyrido[4,3-d]pyrimidin-6(5H)-yl)-N-butylbenzamide] was run?
Answer: The IC50 was greater than 10000 nM.

Question: Which IC50 does the source give for Nc1ncc2c(n1)CCN(c1cccc(C(=O)NC3CCCC3)c1)C2 [Example 19, 3-(2-amino-7,8-dihydropyrido[4,3-d]pyrimidin-6(5H)-yl)-N-cyclopentylbenzamide] here?
Answer: Its IC50 is greater than 10000 nM.

Question: How did the IC50 turn out when CC(C)(C)CCNC(=O)c1cccc(N2CCc3nc(N)ncc3C2)c1 [Example 20, 3-(2-amino-7,8-dihydropyrido[4,3-d]pyrimidin-6(5H)-yl)-N-(3,3-dimethylbutyl)benzamide] was run?
Answer: The IC50 was 164 nM.

Question: CCN(CC)C(=O)c1cccc(N2CCc3nc(N)ncc3C2)c1 [Example 21, 3-(2-amino-7,8-dihydropyrido[4,3-d]pyrimidin-6(5H)-yl)-N,N-diethylbenzamide] was tested. Which IC50 did it give?
Answer: The IC50 was greater than 1000 nM.

Question: Which IC50 does the source give for Cc1cccc(NC(=O)c2cccc(N3CCc4nc(N)ncc4C3)n2)c1 [Example 37, 6-(2-amino-7,8-dihydropyrido[4,3-d]pyrimidin-6(5H)-yl)-N-(3-methylphenyl)pyridine-2-carboxamide] here?
Answer: The IC50 was greater than 10000 nM.

Question: Which IC50 does the source give for O=C(Nc1ccc(N2CCc3ccncc3C2)cc1)c1cccc(C(F)(F)F)c1 [Example 162, N-[4-(3,4-dihydro-2,7-naphthyridin-2(1H)-yl)phenyl]-3-(trifluoromethyl)benzamide] here?
Answer: Its IC50 is greater than 10000 nM.

Question: For O=C(Nc1ccccc1)Nc1ccc(N2CCc3ccncc3C2)cc1 [Example 164, 1-[4-(3,4-dihydro-2,7-naphthyridin-2(1H)-yl)phenyl]-3-phenylurea], which IC50 is on record?
Answer: Its IC50 is greater than 10000 nM.

Question: For Cc1ccc(NC(=O)Nc2ccc(N3CCc4ccncc4C3)cc2)cc1 [Example 165, 1-[4-(3,4-dihydro-2,7-naphthyridin-2(1H)-yl)phenyl]-3-(4-methylphenyl)urea], which IC50 is on record?
Answer: The IC50 was greater than 1000 nM.
